# Patent US7087620B2, “Liquid pharmaceutical formulations containing 3,7-diazabicyclo[3,3,1]nonane compounds and methods of treatment relating to anti-arrhythmic events” (Solvay Pharmaceuticals GmbH, priority 2002, dated 2006)
# Tested on: subjects with recent onset atrial fibrillation or flutter
# Assay: Phase III study of intravenous tedisamil sesquifumarate in subjects with recent onset atrial fibrillation or flutter
# Assay type: in vivo, human
# Conditions: second study (Phase III)
# Method: This second clinical study was a Multi-Center, Double-Blind, Randomized, Placebo-Controlled, Parallel Design Study to evaluate the Efficacy and Safety of Intravenous Tedisamil Sesquifumarate in the Rapid Conversion to Normal Sinus Rhythm in Subjects with Recent Onset Atrial Fibrillation or Flutter.
# The active ingredient used was tedisamil sesqifumarate. […] Study duration: Screening: up to 48 hours; treatment (in-patient): single 30-minute infusion; safety follow up: 24 hours (in-patient) with continuous telemetry and 28 day safety follow up. […]
smiles,measurement,value
"C1CCC2(C1)C1CN(CC3CC3)CC2CN(CC2CC2)C1 [Tedisamil, N,N′-dicyclopropylmethyl-9,9-tetramethylene-3,7-diazabicyclo[3,3,1]nonane]",Gender difference in conversion rate,male patients show a higher conversion rate compared to women
